The subject of assay [1] is rat colitis model induced by rectal administration of DNBS. The assay can be described thus: Rat colitis induced by enema administration of DNBS. The format is in vivo, Wister rats. The following applies: 20 mg/kg p.o. QD, day -2 to 6 (G6); DNBS colitis rats; comparable to positive control group. The procedure:
Sixty male Wister rats (purchased from Beijing Vital River Laboratory Animal Technology Co., Ltd.) were randomly divided into six groups, with 10 rats in each group: G1 was the blank control group; G2-G6 were the rat colitis model groups induced by rectal administration of DNBS solution (Tokyo Chemical Industry Co., Ltd., 50 mg/mL DNBS dissolved in 30% ethanol). Various animals were administered with drugs starting from two days before colitis induced by DNBS, and the administration schedules were shown in Table 3 below.
The induction of colitis was performed as follows. The rats were fasted for 40 h before administration, and were subcutaneously injected with 5% glucose saline ([…], once a day) during the fast. On day 0, the fasted rats were anesthetized using Zoletil (intraperitoneal injection, 25 mg/kg, purchased from a pharmacy) and xylazine (intraperitoneal injection, 5 mg/kg, purchased from Sigma-Aldrich). In G2-G6 model groups, colitis was induced in rats by inserting a catheter from the anus into the left colic flexure (about 8 cm away from the anus) and administrating DNBS (0.5 mL per rat) through enema administration. The G1 blank control group was administered with 30% ethanol via enema using the same method. In order to avoid the reflux of enema fluid, animals with enema administration were kept in a head-down position for 15 mins, and then maintained in the Trendelenburg position until waking up.
During the administration period, the body weights of rats in all groups were recorded every day. Six days later, the animals were euthanized and the colorectal tissues were collected. The ulcer area of the colorectum, as well as the degrees of adhesion, intestinal obstruction, ulceration, and intestinal wall thickening, were measured. The pathological condition of the intestinal wall was evaluated. The conditions of colon damage was evaluated according to Table 4.
If the ulcer is irregular in shape, it can be considered as a rectangle, and then the length and width were measured to evaluate the ulcer area. Ulcer area (cm^2)=ulcer length (cm)×ulcer width (cm).

Assay [2] has as its system adjuvant-induced arthritis model rats. In words: Adjuvant-induced rat arthritis model. The following applies: Day 21. It is filed as in vivo, Sprague-Dawley (SD) rats. The protocol:
Experimental animals: Fifty male Sprague-Dawley (SD) rats weighing 180+20 g (provided by Qinglongshan Animal Breeding Center, license number SCXK(Su) 2017-0001) were fed with conventional pellet food (Jiangsu Xietong Biology Co., Ltd.) and housed in a clean animal facility. The rats were housed under a 12 h dark/12 h light cycle with free access to food and water. The temperature was maintained between 20° C. to 26° C., while the relative humidity ranged from 40% to 70%. […] Each group of 10 animals was administered QD for a continuous period of 21 days. […]
Paw swelling measurement: 1) the volume of right hind paw for the rats in each group was measured and recorded using a plethysmometer for paw volume before administration, which was used as the baseline value before modeling; 2) the volume of the rats' paw was measured at the end of administration (Day 21), which was used as the secondary value; 3) the swelling volume of the rats' paw was calculated according to the following formula: […]
The arthritis index scores were determined as following: at the end of administration (Day 21), rats in each group were evaluated according to the scoring standard described in Table 5. […]

One compound from patent US20250241918A1, “NOVEL USE OF PYRAZOLOPYRIMIDINE COMPOUND” (HEFEI YOUYUAN PHARMACEUTICAL CO., LTD., priority 2022, published 2025) can be followed below.

As to `CN(C)CC(=O)N1CCC[C@@H](n2nc(-c3ccc(Oc4ccccc4)cc3)c3c(N)ncnc32)C1` [Compound 22, (R)-1-(3-(4-amino-(4-phenoxyphenyl)-1H-pyrazolo[3,4-d]pyrimidin-1-yl)piperidin-1-yl)-2-(dimethylamino) ethanone], in assay [1], the “animal body weights vs G2 model group” value is given as “significantly lower than those for the G2 group”; the “scores for the degrees of adhesion, intestinal obstruction, ulceration, intestinal wall thickening vs G2 model group” value was “significantly lower than those for the G2 group”; the “ulcer areas of colorectal tissues vs G2 model group” value is on record as “significantly lower than those for the G2 group”. Further, in assay [2] (10 mg/kg orally QD), the paw swelling result was “significantly alleviated paw swelling”. Further, in assay [2] (30 mg/kg orally QD), the paw swelling entry was “significantly alleviated paw swelling”.
